Reference: PMC6397705 (Molecular cancer therapeutics, 2019)
pEC50, pIC50: −log10 of the molar value.

Columns and labels:
[1] = system: PPP1C/PPP2AC/PPP5C/ PPP6C; details: cited from earlier work
[2] = target: T1, PP2AC (Bos taurus, UniProt P67774); experiment: [32P]-phosphohistone phosphatase assay; format: biochemical, bovine
[3] = system: HEK-293 cells; experiment: Western analysis of ribosomal S6; format: cell-based, human; details: wild-type HEK-293 cells, 0–2 μM, 3 hours
[4] = target: T2, PPP5C (Homo sapiens, UniProt P53041); experiment: [32P]-phosphohistone phosphatase assay; format: biochemical
[5] = target: T2, PPP5C; experiment: Phosphopeptide; format: biochemical
[6] = target: T1, PP2AC; experiment: DiFMUP-based phosphatase inhibition assay; format: biochemical, bovine
[7] = system: PP2AC versus PPP5C; experiment: Selectivity over the three substrate assays; format: biochemical; details: with all three substrates
[8] = in vitro; format: cell-based; details: human, EC50, cytotoxicity in U-937 cells, 72 hours, n=16
[9] = target: T1, PP2AC; experiment: Phosphopeptide; format: biochemical, bovine
[10] = system: solid tumor patients; details: of 46 solid tumor patients, Phase I; cited from earlier work
[11] = system: PP2A; details: cited from earlier work

T1 sequence (P67774 whole entry): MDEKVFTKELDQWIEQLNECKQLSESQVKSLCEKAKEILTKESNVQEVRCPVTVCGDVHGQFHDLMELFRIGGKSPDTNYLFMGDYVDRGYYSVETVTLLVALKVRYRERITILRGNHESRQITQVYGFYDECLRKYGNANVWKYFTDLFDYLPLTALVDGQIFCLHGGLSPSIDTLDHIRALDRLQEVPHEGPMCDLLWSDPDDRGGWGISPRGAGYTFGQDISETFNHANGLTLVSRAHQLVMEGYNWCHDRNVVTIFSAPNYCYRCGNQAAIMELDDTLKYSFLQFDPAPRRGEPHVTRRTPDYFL
T2 sequence (P53041 whole entry): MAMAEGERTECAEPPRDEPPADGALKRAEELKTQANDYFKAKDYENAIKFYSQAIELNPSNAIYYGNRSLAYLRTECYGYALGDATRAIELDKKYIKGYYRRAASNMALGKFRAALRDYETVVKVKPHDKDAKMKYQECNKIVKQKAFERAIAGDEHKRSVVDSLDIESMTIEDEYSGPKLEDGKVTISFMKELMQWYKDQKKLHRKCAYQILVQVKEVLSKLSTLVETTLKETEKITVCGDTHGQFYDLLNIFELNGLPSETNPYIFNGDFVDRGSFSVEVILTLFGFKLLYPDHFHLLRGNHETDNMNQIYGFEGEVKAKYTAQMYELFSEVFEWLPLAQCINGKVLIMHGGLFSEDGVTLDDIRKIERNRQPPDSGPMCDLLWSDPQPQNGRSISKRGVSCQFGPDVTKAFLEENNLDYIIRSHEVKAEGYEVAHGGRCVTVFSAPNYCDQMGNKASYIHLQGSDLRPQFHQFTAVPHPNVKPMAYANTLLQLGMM

In the case of C[C@@]12C(=O)OC(=O)[C@]1(C)[C@H]1CC[C@@H]2O1 [cantharidin], the “affinity for ser/thr phosphatases 1, 2A, 5, and 6” value ([1]; catalytic inhibitor) is given as “submicromolar to low micromolar”.
In the case of nodularin, the pIC50 [1] is given as over 8.70.
In the case of CN1CCN(C(=O)C2C3CCC(O3)C2C(=O)O)CC1 (centres unmarked) [LB-100, 3-(4-methylpiperazine-1-carbonyl)-7-oxabicyclo[2.2.1]heptane-2-carboxylic acid], the pIC50 [2] was 6.19, the “phosphorylation of ribosomal protein S6 (Ser235/236)” value [3] was “induced in the wild-type HEK-293 cells by LB-100 in a dose-dependent manner” and the pIC50 [4] was 5.31. For the same compound, the pIC50 [5] was 5.18, the pIC50 [6] was 6.41 and the “selectivity for PP2AC versus PPP5C” value [7] was 4–7 fold. The pEC50 ([8]; LB-100 alone) was 4.93, the pEC50 ([8]; LB-100 and 500 nM dexamethasone) was 5.26 and the pIC50 [9] was 5.90.
In the case of C[C@@](O)(/C=C/[C@H]1CC=CC(=O)O1)[C@@H](C[C@@H](O)\C=C/C=C\C=C\CO)OP(=O)(O)O [fostriecin], the “disease stability, number of patients” value [10] is given as 16.
In the case of Microcystin, the pIC50 [1] is given as over 8.70.
For “4-(3-carboxy-7-oxa-bicyclo [2.2.1] heptane-2-carbonyl)piperazine-1-carboxylic acid tert- butyl ester [LB-102]”, the “selectivity for PP2A” value [11] is given as > 10,000 fold.
